# Reference: patent US7504425B2 (priority 2002, dated 2009)
# Target: Bacillus anthracis lethal factor (Bacillus anthracis, UniProt P15917)
# Assay: biochemical
# Bacillus anthracis lethal factor, sequence (P15917 34-809 limits assumed): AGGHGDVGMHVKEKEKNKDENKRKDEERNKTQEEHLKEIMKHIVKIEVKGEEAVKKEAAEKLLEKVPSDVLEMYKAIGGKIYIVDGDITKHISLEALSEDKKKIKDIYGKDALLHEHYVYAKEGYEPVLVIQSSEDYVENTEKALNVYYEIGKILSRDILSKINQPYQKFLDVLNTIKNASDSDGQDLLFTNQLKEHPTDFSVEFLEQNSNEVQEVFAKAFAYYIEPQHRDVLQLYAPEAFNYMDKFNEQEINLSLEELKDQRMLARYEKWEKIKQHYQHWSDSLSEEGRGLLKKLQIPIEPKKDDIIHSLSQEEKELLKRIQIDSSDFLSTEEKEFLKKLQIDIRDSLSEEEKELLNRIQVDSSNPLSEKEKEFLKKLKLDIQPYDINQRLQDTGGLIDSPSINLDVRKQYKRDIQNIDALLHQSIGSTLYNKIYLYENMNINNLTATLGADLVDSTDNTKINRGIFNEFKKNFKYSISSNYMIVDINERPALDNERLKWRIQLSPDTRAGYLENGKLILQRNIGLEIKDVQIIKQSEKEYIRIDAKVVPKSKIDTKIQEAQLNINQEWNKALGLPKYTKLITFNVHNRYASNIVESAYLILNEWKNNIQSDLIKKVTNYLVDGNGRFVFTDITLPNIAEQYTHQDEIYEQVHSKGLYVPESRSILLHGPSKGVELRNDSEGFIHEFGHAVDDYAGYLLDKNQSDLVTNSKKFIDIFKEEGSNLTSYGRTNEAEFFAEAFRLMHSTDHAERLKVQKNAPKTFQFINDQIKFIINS
compound,measurement,value
Cc1cc(S(=O)(=O)N[C@@H](C(=O)NO)C2CCOCC2)ccc1F,IC50,60 nM
